In paper PMC7311426, “An amphipathic peptide with antibiotic activity against multidrug-resistant Gram-negative bacteria” (Nature Communications, 2020):
≈ marks a conversion by molar mass, not a printed value.

What was measured:
Assay in all cases: microbe, parasite or virus in culture
[1] = tested on: E. coli
In short: (§1)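 Broth microdilution in MHB, 2-fold 12-point series from 128 or 64 down to 0.06 or 0.03 μg mL^−1, 5 × 10^5 CFU mL^−1. Extra runs in CAMHB per CLSI and in MHB with 1% agarose; n ≥ 6.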

[2] = tested on: K. pneumoniae
In short: as §1

[3] = tested on: P. aeruginosa
In short: as §1

CN(C)c1cc(NC(=O)CNC(C)(C)C)c(O)c2c1C[C@H]1C[C@H]3[C@H](N(C)C)C(O)=C(C(N)=O)C(=O)[C@@]3(O)C(O)=C1C2=O [TIG]
MIC, broth microdilution ([1]; E. coli AUD172 parent strain not exposed to drug): 0.12 µg/mL (≈ 0.205 µM) | MIC, broth microdilution ([1]; E. coli AUD172 spontaneous mutant, AA139 selection 4X, plate 2, colony 2, drug-free passage 1): 0.12 µg/mL (≈ 0.205 µM) | MIC, broth microdilution ([1]; E. coli AUD172 spontaneous mutant, AA139 selection 4X, plate 2, colony 2, drug-free passage 5): 0.5 µg/mL (≈ 0.854 µM) | MIC, broth microdilution ([2]; K. pneumoniae 3010 parent strain not exposed to drug): 0.5 µg/mL (≈ 0.854 µM) | MIC, broth microdilution ([2]; K. pneumoniae 3010 spontaneous mutant, AA139 selection 4X, plate 1, colony 1, drug-free passage 1): 0.5, 0.5 µg/mL | MIC, broth microdilution ([2]; K. pneumoniae 3010 spontaneous mutant, AA139 selection 4X, plate 1, colony 1, drug-free passage 5): 0.5, 0.5 µg/mL | MIC, broth microdilution ([2]; K. pneumoniae 3010 spontaneous mutant, AA139 selection 8X, plate 1, colony 1, drug-free passage 1): 0.5, 0.5 µg/mL | MIC, broth microdilution ([2]; K. pneumoniae 3010 spontaneous mutant, AA139 selection 8X, plate 1, colony 1, drug-free passage 5): 0.5, 0.5 µg/mL | MIC, broth microdilution ([2]; K. pneumoniae ST258 parent strain not exposed to drug): 0.5 µg/mL (≈ 0.854 µM) | MIC, broth microdilution ([2]; K. pneumoniae ST258 spontaneous mutant, AA139 selection 4X, plate 1, colony 1, drug-free passage 1): 0.5, 0.5 µg/mL | MIC, broth microdilution ([2]; K. pneumoniae ST258 spontaneous mutant, AA139 selection 4X, plate 1, colony 1, drug-free passage 5): 0.5, 0.5 µg/mL | MIC, broth microdilution ([3]; P. aeruginosa ATCC 27853 parent strain not exposed to drug): 8 µg/mL (≈ 13.7 µM) | MIC, broth microdilution ([3]; P. aeruginosa ATCC 27853 spontaneous mutant, AA139 selection 4X, plate 1, colony 1, drug-free passage 1): 8, 8 µg/mL | MIC, broth microdilution ([3]; P. aeruginosa ATCC 27853 spontaneous mutant, AA139 selection 4X, plate 1, colony 1, drug-free passage 5): 8, 8 µg/mL | MIC, broth microdilution ([3]; P. aeruginosa ATCC 27853 spontaneous mutant, AA139 selection 4X, plate 1, colony 2, drug-free passage 1): 8, 8 µg/mL | MIC, broth microdilution ([3]; P. aeruginosa ATCC 27853 spontaneous mutant, AA139 selection 4X, plate 1, colony 2, drug-free passage 5): 8, 8 µg/mL | MIC, broth microdilution ([3]; P. aeruginosa ATCC 27853 spontaneous mutant, AA139 selection 4X, plate 1, colony 3, drug-free passage 1): 8, 8 µg/mL | MIC, broth microdilution ([3]; P. aeruginosa ATCC 27853 spontaneous mutant, AA139 selection 4X, plate 1, colony 3, drug-free passage 5): 8, 8 µg/mL | MIC, broth microdilution ([3]; P. aeruginosa ATCC 27853 spontaneous mutant, AA139 selection 4X, plate 1, colony 4, drug-free passage 1): 8, 8 µg/mL | MIC, broth microdilution ([3]; P. aeruginosa ATCC 27853 spontaneous mutant, AA139 selection 4X, plate 1, colony 4, drug-free passage 5): 8, 8 µg/mL | MIC, broth microdilution ([3]; P. aeruginosa ATCC 27853 spontaneous mutant, AA139 selection 4X, plate 1, colony 5, drug-free passage 1): 16, 16 µg/mL | MIC, broth microdilution ([3]; P. aeruginosa ATCC 27853 spontaneous mutant, AA139 selection 4X, plate 1, colony 5, drug-free passage 5): 16, 16 µg/mL | MIC, broth microdilution ([3]; P. aeruginosa ATCC 27853 spontaneous mutant, AA139 selection 4X, plate 1, colony 6, drug-free passage 1): 8, 8 µg/mL | MIC, broth microdilution ([3]; P. aeruginosa ATCC 27853 spontaneous mutant, AA139 selection 4X, plate 1, colony 6, drug-free passage 5): 8, 8 µg/mL | MIC, broth microdilution ([3]; P. aeruginosa ATCC 27853 spontaneous mutant, AA139 selection 4X, plate 2, colony 1, drug-free passage 1): 8, 8 µg/mL | MIC, broth microdilution ([3]; P. aeruginosa ATCC 27853 spontaneous mutant, AA139 selection 4X, plate 2, colony 1, drug-free passage 5): 8, 8 µg/mL | MIC, broth microdilution ([3]; P. aeruginosa ATCC 27853 spontaneous mutant, AA139 selection 4X, plate 2, colony 2, drug-free passage 1): 8, 8 µg/mL | MIC, broth microdilution ([3]; P. aeruginosa ATCC 27853 spontaneous mutant, AA139 selection 4X, plate 2, colony 2, drug-free passage 5): 8, 8 µg/mL | MIC, broth microdilution ([3]; P. aeruginosa ATCC 27853 spontaneous mutant, AA139 selection 4X, plate 2, colony 3, drug-free passage 1): 8, 8 µg/mL | MIC, broth microdilution ([3]; P. aeruginosa ATCC 27853 spontaneous mutant, AA139 selection 4X, plate 2, colony 3, drug-free passage 5): 8, 8 µg/mL | MIC, broth microdilution ([3]; P. aeruginosa ATCC 27853 spontaneous mutant, AA139 selection 4X, plate 2, colony 4, drug-free passage 1): 8, 8 µg/mL | MIC, broth microdilution ([3]; P. aeruginosa ATCC 27853 spontaneous mutant, AA139 selection 4X, plate 2, colony 4, drug-free passage 5): 8, 8 µg/mL | MIC, broth microdilution ([3]; P. aeruginosa ATCC 27853 spontaneous mutant, AA139 selection 8X, plate 1, colony 1, drug-free passage 1): 8, 8 µg/mL | MIC, broth microdilution ([3]; P. aeruginosa ATCC 27853 spontaneous mutant, AA139 selection 8X, plate 1, colony 1, drug-free passage 5): 8, 8 µg/mL | MIC, broth microdilution ([3]; P. aeruginosa ATCC 27853 spontaneous mutant, AA139 selection 8X, plate 1, colony 2, drug-free passage 1): 8, 8 µg/mL | MIC, broth microdilution ([3]; P. aeruginosa ATCC 27853 spontaneous mutant, AA139 selection 8X, plate 1, colony 2, drug-free passage 5): 8, 8 µg/mL | MIC, broth microdilution ([3]; P. aeruginosa ATCC 27853 spontaneous mutant, AA139 selection 8X, plate 1, colony 3, drug-free passage 1): 8, 8 µg/mL | MIC, broth microdilution ([3]; P. aeruginosa ATCC 27853 spontaneous mutant, AA139 selection 8X, plate 1, colony 3, drug-free passage 5): 8, 8 µg/mL | MIC, broth microdilution ([3]; P. aeruginosa ATCC 27853 spontaneous mutant, AA139 selection 8X, plate 1, colony 4, drug-free passage 1): 8, 8 µg/mL | MIC, broth microdilution ([3]; P. aeruginosa ATCC 27853 spontaneous mutant, AA139 selection 8X, plate 1, colony 4, drug-free passage 5): 8, 8 µg/mL | MIC, broth microdilution ([3]; P. aeruginosa ATCC 27853 spontaneous mutant, AA139 selection 8X, plate 1, colony 5, drug-free passage 1): 8, 8 µg/mL
